Reference: the supplement of paper PMC10627819

What was measured:
S. aureus DSM 20231 [1] = assay: fitness (endpoint OD595 vs no drug) (fraction); higher = more growth
How it was run: (§1)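 Growth medium was TSB, LB Lennox or CY, and plates were kept at 37 °C. Inoculation was at OD595 0.01 in 384-well plates, at 30 µl per well or 55 µl for S. pneumoniae. OD595 was monitored every 30 min for 14 h and background-subtracted using the first reading. Fitness is the optical density on entering stationary phase divided by the robust mean of no-drug controls, with values capped at 1.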

B. subtilis 168 [2] = assay: as above
How it was run: as §1

S. aureus DSM 20231 [3] = assay: Bliss interaction score (quartile over a dose matrix) (fitness difference); higher = more antagonism (negative = synergy)
How it was run: (§2)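 At entry into stationary phase, OD595 was recorded and divided by the robust mean of the no-drug wells on that plate, with any value above 1 set to 1. This gives the fitness measure used throughout. Single-drug fitness was inferred from combination data, and the Bliss score, observed minus product-expected fitness, is shown as quartiles across technical, biological and donor/recipient replicates.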

B. subtilis 168 [4] = assay: as above
How it was run: as §2

S. aureus Newman [5] = assay: as above
How it was run: as §2

S. pneumoniae D39V [6] = assay: as above
How it was run: as §2

S. pneumoniae D39V [7] = assay: fitness (endpoint OD595 vs no drug) (fraction); higher = more growth
How it was run: as §1

S. aureus Newman [8] = assay: as above; settings: main component drawn
How it was run: as §1
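Wherever Bliss interaction score (quartile over a dose matrix) is given: first quartile when negative (synergy) and third quartile when positive (antagonism).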

CO/N=C(\C(=O)N[C@@H]1C(=O)N2C(C(=O)O)=C(COC(C)=O)CS[C@H]12)c1csc(N)n1 [Cefotaxime] + COc1cc(Cc2cnc(N)nc2N)cc(OC)c1OC [Trimethoprim]
one replicate
Settings | fitness
B. subtilis 168 [2], first compound 0.00775 µg/mL, partner 0.125 µg/mL | 0.309
B. subtilis 168 [2], first compound 0.00775 µg/mL, partner 0.25 µg/mL | 0.288
B. subtilis 168 [2], first compound 0.00775 µg/mL, partner 0.5 µg/mL | 0.269
B. subtilis 168 [2], first compound 0.0155 µg/mL, partner 0.125 µg/mL | 0.262
B. subtilis 168 [2], first compound 0.0155 µg/mL, partner 0.25 µg/mL | 0.181
B. subtilis 168 [2], first compound 0.0155 µg/mL, partner 0.5 µg/mL | 0.0769
B. subtilis 168 [2], first compound 0.031 µg/mL, partner 0.125 µg/mL | 0.149
B. subtilis 168 [2], first compound 0.031 µg/mL, partner 0.25 µg/mL | 0.0914
B. subtilis 168 [2], first compound 0.031 µg/mL, partner 0.5 µg/mL | 0.0904
B. subtilis 168 [2], first compound 0.0625 µg/mL, partner 0.1 µg/mL | 0.47
B. subtilis 168 [2], first compound 0.0625 µg/mL, partner 0.125 µg/mL | 0.432
B. subtilis 168 [2], first compound 0.0625 µg/mL, partner 0.2 µg/mL | 0.454
B. subtilis 168 [2], first compound 0.0625 µg/mL, partner 0.4 µg/mL | 0.402
B. subtilis 168 [2], first compound 0.125 µg/mL, partner 0.1 µg/mL | 0.364
B. subtilis 168 [2], first compound 0.125 µg/mL, partner 0.125 µg/mL | 0.345
B. subtilis 168 [2], first compound 0.125 µg/mL, partner 0.2 µg/mL | 0.336
B. subtilis 168 [2], first compound 0.125 µg/mL, partner 0.4 µg/mL | 0.296
B. subtilis 168 [2], first compound 0.25 µg/mL, partner 0.1 µg/mL | 0.109
B. subtilis 168 [2], first compound 0.25 µg/mL, partner 0.125 µg/mL | 0.274
B. subtilis 168 [2], first compound 0.25 µg/mL, partner 0.2 µg/mL | 0.223
B. subtilis 168 [2], first compound 0.25 µg/mL, partner 0.4 µg/mL | 0.127
B. subtilis 168 [2], first compound 0.5 µg/mL, partner 1 µg/mL | 0.104
B. subtilis 168 [2], first compound 0.5 µg/mL, partner 2 µg/mL | 0.129
B. subtilis 168 [2], first compound 1 µg/mL, partner 1 µg/mL | 0.0524
B. subtilis 168 [2], first compound 1 µg/mL, partner 2 µg/mL | 0.0575
B. subtilis 168 [2], first compound 2 µg/mL, partner 1 µg/mL | 0.0669
B. subtilis 168 [2], first compound 2 µg/mL, partner 2 µg/mL | 0.0449
S. aureus DSM 20231 [1], first compound 0.039 µg/mL, partner 0.125 µg/mL | 0.663
S. aureus DSM 20231 [1], first compound 0.312 µg/mL, partner 0.125 µg/mL | 0.498
S. aureus DSM 20231 [1], first compound 0.312 µg/mL, partner 0.25 µg/mL | 0.384
S. aureus DSM 20231 [1], first compound 0.312 µg/mL, partner 0.5 µg/mL | 0.0438

fitness
Settings | partner 0.125 µg/mL | partner 0.25 µg/mL | partner 0.5 µg/mL | partner 1 µg/mL
B. subtilis 168 [2], first compound 0.0625 µg/mL | – | 0.386 | 0.363 | –
B. subtilis 168 [2], first compound 0.125 µg/mL | – | 0.285 | 0.27 | –
B. subtilis 168 [2], first compound 0.25 µg/mL | – | 0.217 | 0.19 | –
B. subtilis 168 [2], first compound 0.5 µg/mL | – | – | 0.125 | –
B. subtilis 168 [2], first compound 1 µg/mL | – | – | 0.108 | –
B. subtilis 168 [2], first compound 2 µg/mL | – | – | 0.0672 | –
S. aureus DSM 20231 [1], first compound 0.039 µg/mL | – | 0.558 | 0.14 | 0.047
S. aureus DSM 20231 [1], first compound 0.078 µg/mL | 0.584 | 0.536 | 0.207 | 0.0436
S. aureus DSM 20231 [1], first compound 0.156 µg/mL | 0.605 | 0.57 | 0.299 | 0.0551

Settings | Bliss interaction score
B. subtilis 168 [4] | 0.0814
S. aureus DSM 20231 [3] | 0.0326
S. aureus Newman [5] | -0.0597
S. pneumoniae D39V [6] | 0.224

COc1cccc2c1C(=O)c1c(O)c3c(c(O)c1C2=O)C[C@@](O)(C(=O)CO)C[C@@H]3O[C@H]1C[C@H](N)[C@H](O)[C@H](C)O1 [Doxorubicin] + CC(=O)NC[C@H]1CN(c2ccc(N3CCOCC3)c(F)c2)C(=O)O1 [Linezolid]
fitness
Settings | first compound 0.25 µg/mL | first compound 0.5 µg/mL | first compound 0.625 µg/mL | first compound 1 µg/mL | first compound 1.25 µg/mL | first compound 2.5 µg/mL
B. subtilis 168 [2], partner 0.125 µg/mL | – | – | 0.556 | – | 0.489 | 0.311
B. subtilis 168 [2], partner 0.25 µg/mL | – | – | 0.0946 | – | 0.078 | 0.0654
B. subtilis 168 [2], partner 0.5 µg/mL | – | – | 0.0377 | – | 0.0497 | 0.0425
S. aureus DSM 20231 [1], partner 0.125 µg/mL | – | – | 0.762 | – | 0.814 | 0.716
S. aureus DSM 20231 [1], partner 0.25 µg/mL | – | – | 0.617 | – | 0.603 | 0.514
S. aureus DSM 20231 [1], partner 0.5 µg/mL | – | – | 0.223 | – | 0.204 | 0.16
S. pneumoniae D39V [7], partner 0.105 µg/mL | 0.755 | 0.756 | – | 0.746 | – | –
S. pneumoniae D39V [7], partner 0.2 µg/mL | 0.49 | 0.487 | – | 0.412 | – | –
S. pneumoniae D39V [7], partner 0.21 µg/mL | 0.633 | 0.66 | – | 0.674 | – | –
S. pneumoniae D39V [7], partner 0.4 µg/mL | 0.351 | 0.331 | – | 0.302 | – | –
S. pneumoniae D39V [7], partner 0.42 µg/mL | 0.472 | 0.432 | – | 0.377 | – | –
S. pneumoniae D39V [7], partner 0.8 µg/mL | 0.155 | 0.153 | – | 0.141 | – | –

fitness, one replicate
Settings | first compound 0.625 µg/mL | first compound 1.25 µg/mL | first compound 2.5 µg/mL
B. subtilis 168 [2], partner 0.0625 µg/mL | 0.956 | 0.901 | 0.574
S. aureus DSM 20231 [1], partner 1 µg/mL | 0.0276 | 0.0358 | 0.0376

Settings | Bliss interaction score
B. subtilis 168 [4] | -0.0705
S. aureus DSM 20231 [3] | -0.0425
S. aureus Newman [5] | 0.0954
S. pneumoniae D39V [6] | -0.113

COc1cccc2c1C(=O)c1c(O)c3c(c(O)c1C2=O)C[C@@](O)(C(=O)CO)C[C@@H]3O[C@H]1C[C@H](N)[C@H](O)[C@H](C)O1 [Doxorubicin] + CCCCCCCCCC(=O)N[C@@H]1[C@H]([C@@H]([C@H](O[C@H]1OC2=C3C=C4C=C2OC5=C(C=C(C=C5)[C@H]([C@H]6C(=O)N[C@@H](C7=C(C(=CC(=C7)O)OC8[C@H]([C@H]([C@@H]([C@H](O8)CO)O)O)O)C9=C(C=CC(=C9)[C@H](C(=O)N6)NC(=O)[C@@H]4NC(=O)[C@@H]1C2=CC(=CC(=C2)OC2=C(C=CC(=C2)[C@H](C(=O)N[C@H](CC2=CC(=C(O3)C=C2)Cl)C(=O)N1)N)O)O)O)C(=O)O)O[C@H]1[C@@H]([C@H]([C@@H]([C@H](O1)CO)O)O)NC(=O)C)Cl)CO)O)O [Teicoplanin]
fitness
Settings | first compound 0.625 µg/mL | first compound 1.25 µg/mL | first compound 2.5 µg/mL
S. aureus DSM 20231 [1], partner 0.1562 µg/mL, main component drawn | 0.889 | 0.885 | 0.922
S. aureus DSM 20231 [1], partner 0.3125 µg/mL, main component drawn | 0.979 | 0.965 | 0.939
S. aureus DSM 20231 [1], partner 0.625 µg/mL, main component drawn | ≥ 1 | ≥ 1 | 0.978
S. aureus Newman [8], partner 0.62 µg/mL, one replicate | 0.713 | 0.736 | 0.716
S. aureus Newman [8], partner 1.24 µg/mL, one replicate | 0.666 | 0.613 | 0.622
S. aureus Newman [8], partner 2.48 µg/mL, one replicate | 0.339 | 0.283 | 0.237

fitness, S. aureus Newman [8]
Settings | first compound 0.625 µg/mL | first compound 1.25 µg/mL | first compound 2.5 µg/mL
partner 0.1562 µg/mL | 0.886 | 0.809 | 0.728
partner 0.3125 µg/mL | 0.872 | 0.808 | 0.713
partner 0.625 µg/mL | 0.841 | 0.791 | 0.677

main component drawn
Settings | Bliss interaction score
B. subtilis 168 [4] | 0.0931
S. aureus DSM 20231 [3] | 0.0684
S. aureus Newman [5] | 0.0378
S. pneumoniae D39V [6] | 0.102

C[C@@H]1O[C@@H]1P(=O)(O)O [Fosfomycin] + COc1cc(Cc2cnc(N)nc2N)cc(OC)c1OC [Trimethoprim]
fitness
Settings | partner 0.125 µg/mL | partner 0.25 µg/mL | partner 0.5 µg/mL | partner 1 µg/mL
B. subtilis 168 [2], first compound 1.562 µg/mL | 0.572 | 0.405 | 0.35 | –
B. subtilis 168 [2], first compound 3.124 µg/mL | 0.447 | 0.369 | 0.218 | –
B. subtilis 168 [2], first compound 6.248 µg/mL | 0.307 | 0.236 | 0.0904 | –
S. aureus DSM 20231 [1], first compound 0.781 µg/mL | 0.592 | 0.56 | 0.182 | 0.0323
S. aureus DSM 20231 [1], first compound 1.562 µg/mL | 0.56 | 0.484 | 0.106 | 0.0286
S. aureus DSM 20231 [1], first compound 3.124 µg/mL | 0.499 | 0.327 | 0.0645 | 0.0282

fitness, B. subtilis 168 [2], one replicate
Settings | partner 0.1 µg/mL | partner 0.2 µg/mL | partner 0.4 µg/mL | partner 1 µg/mL | partner 2 µg/mL
first compound 1.562 µg/mL | 0.649 | 0.564 | 0.397 | 0.17 | 0.119
first compound 3.124 µg/mL | 0.497 | 0.35 | 0.18 | 0.0628 | 0.0617
first compound 6.248 µg/mL | 0.209 | 0.101 | 0.0381 | 0.0277 | 0.0228

Settings | Bliss interaction score
B. subtilis 168 [4] | -0.112
S. aureus DSM 20231 [3] | 0.0599
S. aureus Newman [5] | 0.0927
S. pneumoniae D39V [6] | 0.158
